# Earlier results as cited in patent US20080032954A1, “Vascular Damaging Agents for Administration as an Intravenous Infusion” (priority 2004, published 2008).
# Columns and labels:
# [1] = patients, 30 minute intravenous infusion once weekly
# [2] = system: proliferating endothelial cells
# tumour = conditions: nude rats
# [3] = phase I study, patients with advanced cancer
# [4] = patients, intravenous infusion at three-week intervals
# [5] = 20 mg/kg as 24-hour subcutaneous infusion versus 5 to 10 second IV bolus
smiles,measurement,setting,value
COc1ccc(/C=C\c2cc(OC)c(OC)c(OC)c2)cc1NC(=O)[C@@H](N)CO [AVE8062A],hypotension,[1],instances of asymptomatic hypotension
"COc1cc2c(c(OC)c1OC)-c1ccc(OP(=O)(O)O)cc1[C@@H](NC(C)=O)CC2 [ZD6126, (5S)-5-(acetylamino)-9,10,11-trimethoxy-6,7-dihydro-5H-dibenzo[a,c]cyclohepten-3-yl dihydrogen phosphate]",effect on tubulin cytoskeleton and cell shape,[2],disrupts the tubulin cytoskeleton causing rounding up and/or detachment of proliferating endothelial cells
same,toxicity compared to single intravenous bolus,tumour; [5],significant increases in toxicity
same,tumour necrosis compared to single intravenous bolus,tumour; [5],no increase in tumour necrosis
same,tolerability,"tumour; 50 mg/kg as 24-hour subcutaneous infusion, in contrast to bolus of the same dose",not tolerated
same,ischemic changes on ECG,"one of the two patients with troponin I elevation, 10 minute IV infusion once every three weeks",reversible grade 2 ischemic changes on ECG
same,elevation in troponin I,"patients, 10 minute intravenous infusion once every three weeks",two patients exhibited grade 3 transient asymptomatic elevation in troponin I
same,blood pressure change,"the other patient with troponin I elevation, 10 minute IV infusion once every three weeks",increase in blood pressure one hour after dosing
COc1ccc(/C=C\c2cc(OC)c(OC)c(OC)c2)cc1OP(=O)(O)O [combretastatin A4 phosphate],hemodynamic and cardiac toxic events,[3],numerous hemodynamic and cardiac toxic events were observed
COc1ccc(/C=C\c2cc(OC)c(OC)c(OC)c2)cc1O [combretastatin A4],"toxicity profile, 10-minute versus 60-minute infusion",[4],no difference in the toxicity profile
